From patent US20190365744A1, “IMPROVED MULTI TYROSINE KINASE INHIBITOR THERAPY” (FRAUNHOFER-GESELLSCHAFT ZUR FORDERUNG DER ANGEWANDTEN …, priority 2017, published 2019)

Test system: CXCR4
Assay: CXCR4 PET/CT with tracer 68Ga-Pentixafor in patients with idiopathic pulmonary fibrosis, prior to and under therapy
Assay type: in vivo, human
Settings: for CXCR4 signal (PET/CT): patients with idiopathic pulmonary fibrosis, after onset of therapy vs prior to therapy, 68Ga-Pentixafor tracer
Protocol: Patients were diagnosed with clinical idiopathic pulmonary fibrosis according to diagnostic criteria of the American Thoracic Society/European Respiratory Society.
Pentixafor synthesis. Material for synthesis of ^68Ga-pentixafor (CPCR4.2) was provided by Scintomics (Fürstenfeldbruck, Germany) Synthesis was performed as previously described (18, 19), using a ^68Ge/^68Ga-generator (Eckert&Ziegler, Braunschweig, Germany) connected to a Scintomics GRP synthesis module.
Clinical Imaging. All studies were obtained on a dedicated PET/CT system (Biograph mCT 128 Flow; Siemens, Knoxville, USA), equipped with an extended field-of-view LSO PET component, a 128-slice spiral CT component, and a magnetically driven table optimized for continuous scanning The patients received an intravenous injection of 110 (IQR, 80-120) MBq of ^68Ga-pentixafor. Imaging started with a low-dose non-enhanced helical CT (120 kV, mA modulated, pitch 1.2, reconstructed axial slice thickness 5.0 mm) performed for attenuation correction of PET acquisitions. PET images of the whole body were then acquired using continuous bed motion (CBM) at a speed of 2.0 mm/s for head and neck and 0.5 mm/s for chest and abdomen at 60 min post injection. All studies were reconstructed using time-of-flight and point-spread function information combined with an iterative algorithm (Ultra HD®, Siemens Healthcare; 2 iterations, 21 subsets, matrix 200; zoom 1.0; Gaussian filter of 5.0). In addition, a non-contrast breath-hold high-resolution CT (HRCT) (120 kV, mA modulated) of the chest was used to obtain contiguous 1.0-mm cross-sectional slices throughout the thorax.
PET/CT image analysis. Transaxial PET, CT and fused PET/CT 68Ga-pentixafor PET/CT images were analyzed on a dedicated workstation equipped with a commercial software package (syngo.via; Siemens Healthcare).
PET images were visually evaluated for the presence of elevated radiotracer uptake in lung parenchyma in areas of usual interstitial pneumonia (UIP) pattern on CT. Then, ^68Ga-Pentixafor uptake was quantified using a 3D Volume-of-Interest (VOI) technique with isocontour thresholding, yielding mean and peak standardized uptake values (SUVmean and SUVpeak). Separate measurements were performed in three subpleural regions in each lung lobe, and values for each region were then averaged for the subsequent statistical analysis. Tracer uptake in mediastinal and hilar lymph nodes was assessed in three thoracic lymph node stations using 3D VOIs with isocontour thresholding, and also averaged for the subsequent statistical analysis. In addition, tracer uptake (SUVmean) in spleen and bone marrow was […], recorded to evaluate systemic interactions.
Patients suffering from idiopathic pulmonary fibrosis were investigated for CXCR4 abundance by PET/CT using a CXCR4 tracer ^68Ga-Pentixafor as described.
The mean signal intensities (SUVmean) were determined in different regions, i.e. upper-, middle and lower fields. The volume of CXCR4-positive areas were determined and put into relation to the total volume of the respective areas. The extent of the fibrotic areas were judged in PET/CT and the SUVmean was determined for mediastinal lymph nodes, spleen and bone marrow.

With `COC(=O)c1ccc2c(c1)NC(=O)/C2=C(\Nc1ccc(N(C)C(=O)CN2CCN(C)CC2)cc1)c1ccccc1` [Nintedanib] the “CXCR4 signal, single further patient” value (one of 5 analyzed patients under treatment) was “constant”, the “CXCR4 signal intensity, single patient with familial idiopathic pulmonary fibrosis” value (one of 5 analyzed patients, unclear whether drug was taken on the day of investigation) was “decrease” and the “CXCR4 signal (PET/CT)” value was “increase”. The “CXCR4 signal (PET/CT)” value (listed as Nitedanib) was “significant increase” and the “patients showing a strong increase in CXCR4 signal intensity in the fibrotic areas in the lung” value (under treatment, these patients received 150 mg in the morning of the PET/CT day) was 3 out of 5.
`Cc1ccc(=O)n(-c2ccccc2)c1` [Pirfenidone] was tested, and the “signal intensities for CXCR4” value (cohort of 12 patients with idiopathic pulmonary fibrosis under treatment vs baseline) was “remained constant or even decreased” and the “strong increase of CXCR4 signal in pulmonary fibrotic areas” value (patients with idiopathic pulmonary fibrosis under treatment) was “not observed”.
